Assay results: ChEMBL document CHEMBL1201862, “PubChem BioAssay data set” (2004)
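Compound exposure: 48 hours, 5 concentrations, 96-well plates. GI50 = concentration required for 50% inhibition of growth.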 Active and inactive are the calls of the source. Rule as the data show it: active = GI50 up to about 1.1 µM and inactive = higher.

Tests used:
Experiment in all cases: NCI anticancer screen, dose series, 48 h
TK-10 = tested on: TK-10
DU-145 = tested on: DU-145
Malme-3M = tested on: Malme-3M
RPMI-8226 = tested on: RPMI-8226
OVCAR-3 = tested on: OVCAR-3
A549 = tested on: A549
MOLT-4 = tested on: MOLT-4
NCI/ADR-RES = tested on: NCI/ADR-RES
EKVX = tested on: EKVX
RXF 393 = tested on: RXF 393
SN12C = tested on: SN12C
UACC-257 = tested on: UACC-257
M14 = tested on: M14
NCI-H460 = tested on: NCI-H460
HOP-62 = tested on: HOP-62
COLO 205 = tested on: COLO 205
HCT-15 = tested on: HCT-15
PC-3 = tested on: PC-3
KM12 = tested on: KM12

Measured: GI50

N=C(CC(=O)Nc1ccccn1)c1ccccc1
> 100 µM: HCT-15
inactive: TK-10 > 100 µM | DU-145 > 100 µM | Malme-3M > 100 µM | RPMI-8226 > 100 µM | OVCAR-3 > 100 µM | A549 > 100 µM | MOLT-4 > 100 µM | NCI/ADR-RES > 100 µM | EKVX > 100 µM | RXF 393 > 100 µM | SN12C > 100 µM | UACC-257 > 100 µM | M14 > 100 µM | NCI-H460 > 100 µM | HOP-62 > 100 µM | COLO 205 > 100 µM | PC-3 > 100 µM | KM12 > 100 µM

Cc1c2c(c(C)c3c[n+](C)ccc13)Oc1ccccc1O2
active: KM12 0.82 µM
> 62.2 µM: HCT-15
inactive: TK-10 50.9 µM | DU-145 22.9 µM | Malme-3M 2.56 µM | RPMI-8226 1.88 µM | OVCAR-3 3.17 µM | A549 1.84 µM | MOLT-4 3.02 µM | NCI/ADR-RES > 100 µM | EKVX 9.44 µM | RXF 393 34.7 µM | SN12C 1.77 µM | UACC-257 6.87 µM | M14 18.2 µM | NCI-H460 3.4 µM | HOP-62 8.89 µM | COLO 205 6.34 µM | PC-3 16.3 µM

C(=N\c1ccc(-c2nc3ccccc3s2)cc1)/c1ccco1
51.2 µM: HCT-15
inactive: TK-10 2 µM | DU-145 > 100 µM | Malme-3M > 100 µM | RPMI-8226 41.6 µM | OVCAR-3 43.6 µM | A549 56.6 µM | MOLT-4 29 µM | NCI/ADR-RES 60.8 µM | EKVX 37.2 µM | RXF 393 55.7 µM | SN12C 75.2 µM | UACC-257 43.8 µM | M14 93.5 µM | NCI-H460 40.3 µM | HOP-62 30.4 µM | COLO 205 87.3 µM | PC-3 32.5 µM | KM12 38 µM

COC(=O)C1(Cc2ccccc2C)Cc2ccc(C)cc2C1=O (centres undefined)
inactive: TK-10 15.5 µM | DU-145 56.8 µM | Malme-3M 23.2 µM | RPMI-8226 17 µM | OVCAR-3 27.7 µM | A549 33.2 µM | MOLT-4 23.6 µM | NCI/ADR-RES 16.7 µM | EKVX 41.4 µM | RXF 393 28.6 µM | SN12C 21.6 µM | UACC-257 29.4 µM | M14 37.2 µM | NCI-H460 30.8 µM | HOP-62 56.4 µM | COLO 205 19.5 µM | PC-3 25.7 µM | KM12 31.2 µM
27.4 µM: HCT-15

C[C@]12CCC(=O)[C@@H](CCC3=CC(=O)C=CC3=O)[C@@H]1CCC2=O
17.4 µM: HCT-15
inactive: TK-10 16 µM | DU-145 17.9 µM | Malme-3M 16.1 µM | RPMI-8226 1.6 µM | OVCAR-3 17.1 µM | A549 18.8 µM | MOLT-4 5.21 µM | NCI/ADR-RES 38 µM | EKVX 18.4 µM | RXF 393 1.9 µM | SN12C 37.4 µM | UACC-257 17.8 µM | M14 17.8 µM | NCI-H460 13.2 µM | HOP-62 39.2 µM | COLO 205 13 µM | PC-3 12.9 µM | KM12 14.3 µM

Cc1c2ncccc2c(C)c2c1[nH]c1ccc(O)cc12
inactive: TK-10 12.8 µM | DU-145 7.23 µM | Malme-3M 8.87 µM | RPMI-8226 2 µM | OVCAR-3 6.28 µM | A549 2.56 µM | NCI/ADR-RES 5.27 µM | EKVX 1.4 µM | RXF 393 2.9 µM | SN12C 2.24 µM | UACC-257 11.5 µM | M14 4.89 µM | NCI-H460 1.31 µM | HOP-62 1.86 µM | COLO 205 10.4 µM | PC-3 2.76 µM | KM12 3.6 µM
3.39 µM: HCT-15
active: MOLT-4 0.478 µM

S=C1c2cc(Cl)ccc2N=C(NC2CCCC2)C2CSCN12 (centres undefined)
> 100 µM: HCT-15
inactive: TK-10 > 100 µM | DU-145 > 100 µM | Malme-3M > 100 µM | RPMI-8226 > 63.8 µM | OVCAR-3 > 68.7 µM | A549 > 84.9 µM | MOLT-4 > 57.7 µM | NCI/ADR-RES 98.6 µM | EKVX > 91 µM | RXF 393 > 69.7 µM | SN12C > 100 µM | UACC-257 > 91.6 µM | M14 > 78 µM | NCI-H460 > 100 µM | HOP-62 > 100 µM | COLO 205 > 100 µM | PC-3 > 55.6 µM | KM12 > 41.4 µM

C=CCN1C(=O)/C(=C/c2cccs2)N=C1SC/C=C/C
33.5 µM: HCT-15
inactive: TK-10 92 µM | DU-145 63.1 µM | Malme-3M 34 µM | RPMI-8226 16.9 µM | OVCAR-3 44.8 µM | A549 40.7 µM | MOLT-4 14.7 µM | NCI/ADR-RES 39.1 µM | EKVX 33.6 µM | RXF 393 22.8 µM | SN12C 26.3 µM | UACC-257 40.3 µM | M14 69.5 µM | NCI-H460 38.3 µM | HOP-62 > 100 µM | COLO 205 31.6 µM | PC-3 35.6 µM | KM12 31.3 µM

COc1cc(OC)c(/C=C\c2ccnc3ccccc23)c(OC)c1
inactive: TK-10 4.61 µM | DU-145 5.37 µM | Malme-3M 1.34 µM | RPMI-8226 3.06 µM | OVCAR-3 2.92 µM | A549 4.13 µM | MOLT-4 3.56 µM | NCI/ADR-RES 2.07 µM | EKVX 4.65 µM | RXF 393 2.39 µM | SN12C 4.71 µM | UACC-257 3.75 µM | M14 3.4 µM | NCI-H460 3.2 µM | HOP-62 5.19 µM | COLO 205 1.98 µM | PC-3 5.51 µM
active: KM12 0.736 µM
0.794 µM: HCT-15

C[C@H]1[C@H]2[C@H](C[C@@]3(C)C4=CC[C@H]5C(C)(C)[C@@H](OC6OCC(O)C(O)C6O)CC[C@@]56C[C@@]46CC[C@]23C)O[C@@]2(O)[C@@H]1OC(C)(C)[C@H]2O (some centres undefined)
1.05 µM: HCT-15
active: DU-145 1.02 µM | Malme-3M 0.993 µM | SN12C 1.06 µM | PC-3 1.07 µM
inactive: TK-10 1.17 µM | RPMI-8226 1.15 µM | OVCAR-3 3.01 µM | A549 1.4 µM | MOLT-4 3.96 µM | NCI/ADR-RES 2.67 µM | EKVX 1.12 µM | RXF 393 1.2 µM | UACC-257 1.6 µM | M14 3.83 µM | NCI-H460 2.12 µM | HOP-62 1.78 µM | COLO 205 2.67 µM | KM12 1.48 µM

COc1ccc2c(c1)/C(=C\c1c(Cl)[nH]c3cc(C)c(OC)cc13)C(=O)N2
0.467 µM: HCT-15
active: RPMI-8226 0.942 µM | OVCAR-3 0.347 µM | MOLT-4 0.893 µM | NCI/ADR-RES 0.811 µM | RXF 393 0.891 µM | M14 0.698 µM | NCI-H460 0.76 µM | COLO 205 1.03 µM | PC-3 0.807 µM | KM12 0.467 µM
inactive: TK-10 1.64 µM | DU-145 1.66 µM | Malme-3M 1.28 µM | A549 1.19 µM | EKVX 2.1 µM | SN12C 2.09 µM | UACC-257 2.63 µM | HOP-62 4.44 µM
